Patent US12144889B2, “Methods of treating allergic conjunctivitis” (OCULAR THERAPEUTIX, INC., priority 2020, dated 2024)

How the values were obtained:
[1] = oral, cited from earlier work; for Relative Potency: with reference to cortisol
[2] = 25° C.; cited from earlier work
[3] = Solubility of dexamethasone in water / aqueous medium; assay type: physicochemical; details: aqueous medium such as the tear fluid
Text: In certain embodiments of the present invention, dexamethasone is micronized and may have a D50 particle size of less than about 10 μm and/or a D99 particle size of less than about 50 μm. A specific suitable micronized dexamethasone for use in certain embodiments of the present invention is “Dexamethasone USP micronized” from Pfizer with a D90 particle size of equal to or less than about 5 μm (i.e., the volume portion of particles with a particle size of or below about 5 μm is 90%), and a D98 particle size of equal to or below about 10 μm (i.e., the volume portion of particles with a particle size of equal to or below about 10 μm is 98%). The “D” value such as in “D50” means that the indicated percentage by volume (such as 50 volume-% in D50 etc.) of all particles within the respective bulk material (which has a certain particle size distribution) has a particle size of or below the indicated value, e.g. a D50 particle size of below about 10 μm means that 50 volume-% of the particles have a particle size of or below about 10 μm. The particle size distribution can be commonly measured by methods known in the art, and includes sieving as well as laser diffraction methods. […]
It is believed that release of the glucocorticoid into the tear fluid is determined by the glucocorticoid's solubility in an aqueous environment. […]

Structure (SMILES)	Equivalent Dose [1]	Relative Potency [1]	solubility in water [2]	solubility [3]
C[C@]12C=CC(=O)C=C1CC[C@H]1[C@@H]3C[C@@H](O)[C@](O)(C(=O)CO)[C@@]3(C)C[C@H](O)[C@@]12F [Triamcinolone]	4 mg	5		
C[C@@H]1C[C@H]2[C@@H]3CCC4=CC(=O)C=C[C@]4(C)[C@@]3(F)[C@@H](O)C[C@]2(C)[C@@]1(O)C(=O)CO [Dexamethasone, 9-Fluor-11β,17,21-trihydroxy-16α-methyl-pregna-1,4-dien-3,20-dion]	0.8 mg		approx. 89 mg/L	< 100 µg/mL
C[C@]12CCC(=O)C=C1CC[C@@H]1[C@@H]2[C@@H](O)C[C@@]2(C)[C@H]1CC[C@]2(O)C(=O)CO [Cortisol (Hydrocortisone), Cortisol]	20 mg	1		
C[C@]12C=CC(=O)C=C1CC[C@@H]1[C@@H]2[C@@H](O)C[C@@]2(C)[C@H]1CC[C@]2(O)C(=O)CO [Prednisolone]	5 mg	4		
